In article PMC10620772, “Design, synthesis, and biological evaluation of new pyrimidine-5-carbonitrile derivatives as novel anti-cancer, dual EGFR^WT/COX-2 inhibitors with docking studies” (RSC Advances, 2023):

Legend:
Type in all cases: cell-based, human
CCRF-CEM = test: NCI60 antitumor screening; conditions: 10 μM one-dose
SF-268 = test: NCI60 antitumor screening; conditions: 10 μM one-dose
NCI60 cell lines panel = test: NCI60 antitumor screening, full panel; conditions: 10 μM one-dose, mean over NCI60
Method: The National Cancer Institute (NCI), Bethesda, Maryland, United States, selected all of the novel synthesized compounds (2b–d, 3a–d and 4a–p) for in vitro antitumor screening at a single concentration of 10 μM toward the NCI60 cell lines panel covering leukaemia, non-small cell lungs, colon, central nervous system (CNS), melanoma, ovarian, renal, prostate, and breast cancer cells.[32–35] The data were reported as a mean graph of the percent growth of the treated cell lines and expressed as percentage growth inhibition (GI%) in Table 1 and ESI 1.
(2) The molar concentration of the compound responsible for total growth inhibition, also known as total growth inhibition (TGI).
Regarding subpanel selectivity toward certain cancer type, the method of determining a compound's selectivity index is to divide the full panel MG-MID (μM) value by each single subpanel. Values above six indicate high selectivity against the subpanel; moderate selectivity is denoted by values between three and six. Conversely, compounds are termed nonselective if their selectivity is less than three.[30,37]

UACC-257 = test: NCI60 antitumor screening; conditions: 10 μM one-dose
MDA-MB-231/ATCC = test: NCI60 antitumor screening; conditions: 10 μM one-dose
HCT-116 = test: NCI60 antitumor screening; conditions: 10 μM one-dose
SK-MEL-5 = test: NCI60 antitumor screening; conditions: 10 μM one-dose
HOP-92 = test: NCI60 antitumor screening; conditions: 10 μM one-dose
UACC-62 = test: NCI60 antitumor screening; conditions: 10 μM one-dose
BT-549 = test: NCI60 antitumor screening; conditions: 10 μM one-dose
UO-31 = test: NCI60 antitumor screening; conditions: 10 μM one-dose
HCT-15 = test: NCI60 antitumor screening; conditions: 10 μM one-dose
SNB-75 = test: NCI60 antitumor screening; conditions: 10 μM one-dose
OVCAR-8 = test: NCI60 antitumor screening; conditions: 10 μM one-dose
MDA-MB-435 = test: NCI60 antitumor screening; conditions: 10 μM one-dose
A549/ATCC = test: NCI60 antitumor screening; conditions: 10 μM one-dose
IGROV1 = test: NCI60 antitumor screening; conditions: 10 μM one-dose
SF-295 = test: NCI60 antitumor screening; conditions: 10 μM one-dose
RXF 393 = test: NCI60 antitumor screening; conditions: 10 μM one-dose
CAKI-1 = test: NCI60 antitumor screening; conditions: 10 μM one-dose
SNB-19 = test: NCI60 antitumor screening; conditions: 10 μM one-dose
COLO 205 = test: NCI60 antitumor screening; conditions: 10 μM one-dose
HS 578T = test: NCI60 antitumor screening; conditions: 10 μM one-dose
SK-MEL-28 = test: NCI60 antitumor screening; conditions: 10 μM one-dose
NCI-H23 = test: NCI60 antitumor screening; conditions: 10 μM one-dose
OVCAR-5 = test: NCI60 antitumor screening; conditions: 10 μM one-dose
TK-10 = test: NCI60 antitumor screening; conditions: 10 μM one-dose
HCC-2998 = test: NCI60 antitumor screening; conditions: 10 μM one-dose
MALME-3M = test: NCI60 antitumor screening; conditions: 10 μM one-dose
MOLT-4 = test: NCI60 antitumor screening; conditions: 10 μM one-dose
LOX IMVI = test: NCI60 antitumor screening; conditions: 10 μM one-dose
U251 = test: NCI60 antitumor screening; conditions: 10 μM one-dose
NCI/ADR-RES = test: NCI60 antitumor screening; conditions: 10 μM one-dose
786–0 = test: NCI60 antitumor screening; conditions: 10 μM one-dose, Table 1
HT29 = test: NCI60 antitumor screening; conditions: 10 μM one-dose
NCI-H522 = test: NCI60 antitumor screening; conditions: 10 μM one-dose
OVCAR-4 = test: NCI60 antitumor screening; conditions: 10 μM one-dose, Table 1
OVCAR-3 = test: NCI60 antitumor screening; conditions: 10 μM one-dose
NCI-H460 = test: NCI60 antitumor screening; conditions: 10 μM one-dose
SN12C = test: NCI60 antitumor screening; conditions: 10 μM one-dose
PC-3 = test: NCI60 antitumor screening; conditions: 10 μM one-dose
T-47D = test: NCI60 antitumor screening; conditions: 10 μM one-dose
SW-620 = test: NCI60 antitumor screening; conditions: 10 μM one-dose
A498 = test: NCI60 antitumor screening; conditions: 10 μM one-dose
SR = test: NCI60 antitumor screening; conditions: 10 μM one-dose, Table 1
M14 = test: NCI60 antitumor screening; conditions: 10 μM one-dose
K-562 = test: NCI60 antitumor screening; conditions: 10 μM one-dose
ACHN = test: NCI60 antitumor screening; conditions: 10 μM one-dose
DU-145 = test: NCI60 antitumor screening; conditions: 10 μM one-dose
SF-539 = test: NCI60 antitumor screening; conditions: 10 μM one-dose
RPMI-8226 = test: NCI60 antitumor screening; conditions: 10 μM one-dose
MCF7 = test: NCI60 antitumor screening; conditions: 10 μM one-dose
KM12 = test: NCI60 antitumor screening; conditions: 10 μM one-dose
HOP-62 = test: NCI60 antitumor screening; conditions: 10 μM one-dose
EKVX = test: NCI60 antitumor screening; conditions: 10 μM one-dose
SK-OV-3 = test: NCI60 antitumor screening; conditions: 10 μM one-dose
SK-MEL-2 = test: NCI60 antitumor screening; conditions: 10 μM one-dose
NCI-H226 = test: NCI60 antitumor screening; conditions: 10 μM one-dose
MDA-MB-468 = test: NCI60 antitumor screening; conditions: 10 μM one-dose
HL-60(TB) = test: NCI60 antitumor screening; conditions: 10 μM one-dose

Structure (SMILES): N#Cc1c(-c2ccc(F)cc2)nc(SCc2ccc(F)cc2)[nH]c1=O [2b, 2-((4-Fluorobenzyl)thio)-4-(4-fluorophenyl)-6-oxo-1,6-dihydropyrimidine-5-carbonitrile]
- GI% (CCRF-CEM): — (GI% < 10)
- GI% (SF-268): 24.67%
- Mean GI% (NCI60 cell lines panel): 16.01%
- GI% (UACC-257): — (GI% < 10)
- GI% (MDA-MB-231/ATCC): 39.26%
- GI% (HCT-116): 33.39%
- GI% (SK-MEL-5): — (GI% < 10)
- GI% (HOP-92): 19.25%
- GI% (UACC-62): 11.33%
- GI% (BT-549): — (GI% < 10)
- GI% (UO-31): 26.71%
- GI% (HCT-15): — (GI% < 10)
- GI% (SNB-75): 23.60%
- GI% (SNB-75; Table 1): — (GI value > 70%)
- GI% (OVCAR-8): 48.04%
- GI% (MDA-MB-435): — (GI% < 10)
- GI% (A549/ATCC): 15.77%
- GI% (IGROV1): — (GI% < 10)
- GI% (SF-295): 25.73%
- GI% (RXF 393): 28.91%
- GI% (RXF 393; Table 1): — (GI value > 70%)
- GI% (CAKI-1): 24.10%
- GI% (SNB-19): 18.35%
- GI% (COLO 205): — (GI% < 10)
- GI% (HS 578T): 24.34%
- GI% (HS 578T; Table 1): — (GI value > 70%)
- GI% (SK-MEL-28): — (GI% < 10)
- GI% (NCI-H23): 12.73%
- GI% (OVCAR-5): — (GI% < 10)
- GI% (TK-10): 17.90%
- GI% (HCC-2998): — (GI% < 10)
- GI% (MALME-3M): — (GI% < 10)
- GI% (MOLT-4): — (GI% < 10)
- GI% (LOX IMVI): 10.55%
- GI% (U251): 33.40%
- GI% (NCI/ADR-RES): 37.17%
- GI% (786–0): 84.82%
- GI% (HT29): — (GI% < 10)
- GI% (NCI-H522): 25.94%
- GI% (OVCAR-4): 73.14%
- GI% (OVCAR-3): — (GI% < 10)
- GI% (NCI-H460): 13.27%
- GI% (SN12C): 17.08%
- GI% (PC-3): — (GI% < 10)
- GI% (T-47D): 25.99%
- GI% (SW-620): — (GI% < 10)
- GI% (A498): — (GI% < 10)
- GI% (SR): — (GI value > 70%)
- GI% (M14): — (GI% < 10)
- GI% (K-562): — (GI% < 10)
- GI% (K-562; Table 1): — ^b (GI value > 70%)
- GI% (ACHN): 26.83%
- GI% (DU-145): — (GI% < 10)
- GI% (SF-539): 45.33%
- GI% (SF-539; Table 1): — (GI value > 70%)
- GI% (RPMI-8226): — (GI% < 10)
- GI% (MCF7): — (GI% < 10)
- GI% (KM12): — (GI% < 10)
- GI% (HOP-62): 16.84%
- GI% (HOP-62; Table 1): — (GI value > 70%)
- GI% (EKVX): — (GI% < 10)
- GI% (SK-OV-3): 26.25%
- GI% (SK-MEL-2): — (GI% < 10)
- GI% (NCI-H226): 24.21%
- GI% (NCI-H226; Table 1): — (GI value > 70%)
- GI% (MDA-MB-468): 14.26%
- GI% (HL-60(TB)): 20.88%
